# Results as given in patent publication US10709724B2, “Methods of treating mitochondrial dysfunction” (Ecole Polytechnique Federale de Lausanne (EPFL), priority 2011, dated 2020).
# Test system: C57Bl/6J mice
# Test: Long-term NR supplementation of chow or high-fat diet fed mice
# Assay type: in vivo
# Description: Animal Experiments. Male PARP-1^+/+ and PARP-1^−/− mice on a pure C57Bl/6J background (Menissier-de Murcia et al., 1997) were used. Mice were housed separately, had ad libitum access to water and standard rodent chow (10 kcal % of fat, Safe, Augy, France) or to a high calorie, high fat diet (60 kcal % of fat, Research. Diets, New Brunswick, N.J., USA), and were kept under a 12 h dark-light cycle. In other animal experiments, 8 weeks-old male C57Bl/6J mice were purchased from Charles River and powder chow (D12450B) and high fat (D12492) diets were from Research Diets Inc (New Brunswick, N.J., USA). 80 ml of water per kg of powder CD were used to make food pellets. 40 ml of water per kg of powder HFD were used to make food pellets. For NR, NMN and NA supplemented diets, the appropriate amount of these compounds was added to the water used to create the pellets, taking into account the differences in the daily intake of each diet. Mice were housed separately, had ad libitum access to water and food and were kept under a 12 h dark-light cycle. Mice were fed with homemade pellets from 10 weeks of age. To make the pellets, the powder food was mixed with water (vehicle) or with NR. All animal experiments were carried out according to local national and EU ethical guidelines. To monitor body weight, mice were weighed and the food consumption was measured each week on the same day. In case of PJ34 treatment, mice received each 12 h (at 7:00 and 19:00) 10 mg/kg PJ34 by intraperitoneal injection for 5 continuous days. In all studies animals were killed (at 14:00) either after CO2 inhalation or cervical dislocation after 6 h of fasting (starting at 8:00), and tissues were collected and processed as specified below. Oral glucose tolerance test, intraperitoneal insulin tolerance test, free fatty acid (FFA) and triglycerides were determined as described (Lagouge et al., 2006). Plasma insulin and was determined in heparinized plasma samples using specific ELISA kits (Mercodia). Blood samples were collected in heparinized tubes and plasma was isolated after centrifugation. Plasma parameters were measured using a Cobas c111 (Roche Diagnostics). Thermoadaptation was performed as described (Lagouge et al., 2006). We measured O2 consumption, CO2 production, and spontaneous locomotor activity in an open circuit indirect calorimetry system (Sabre systems, Las Vegas, Nev., USA) over 24-48 has described (Dali-Youcef et al., 2007; Lagouge et al., 2006; Watanabe et al., 2006). […] The respiratory quotient was the ratio of CO2 production over O2 consumption. During actimetry, beamline crossings were summarized each 15 minutes. […] Euglycemic-hyperinsulinemic clamps were performed in PARP-1^−/− and ^+/+ male mice (n=4 mice per genotype; age=4 months) exactly as previously described (Feige et al, 2008).
# Instruments, total body fat was measured by echoMRI as described (Lagouge et al., 2006; Watanabe et al., 2006). Endurance test was performed as described in (Canto et al., 2009). Intraperitoneal glucose and insulin tolerance tests (IPGTT and IPITT, respectively) were performed as previously described (Feige et al, 2008). The animals were killed after 6 h of fasting by CO2 asphyxiation and tissues were collected. Total body fat content was then examined at autopsy, by weighing the subcutaneous, gonadal, mesenterial, retroperitoneal and BAT associated fat depots. Liver triglyceride was determined after Folch extraction using a commercial triglyceride kit (Roche). Pancreas and plasma insulin content was determined from acidic extracts using a commercial ELISA kit (Mercodia) (Champy et al., 2004).
# Histology and Microscopy. Haematoxylin-eosin (HE), Oil Red-O and succinate-dehydrogenase (SDH) stainings were performed on […] tissue sections as described (Lagouge et al., 2006; Picard et al., 2002). Transmission electron microscopy (TEM) investigation was performed on glutaraldehyde-fixed, osmium tetroxyde stained ultrafine sections (Watanabe et al., 2006). […]
smiles,measurement,setting,value
"NC(=O)c1ccc[n+]([C@@H]2O[C@H](CO)[C@@H](O)[C@H]2O)c1 [NR, nicotinamide riboside]",fasting insulin levels,"16 weeks, 6 hr fast",much lower
same,thermogenic capacity (body temperature during cold exposure),CD and HFD,enhanced thermogenic capacity
same,O2 consumption rates on CD,"CD, NR 400 mg/kg/day",marked tendency to display higher O2 consumption rates
same,RER changes between feeding and fasting periods,"CD, NR 400 mg/kg/day",higher amplitude of the changes in RER
same,body weight on chow diet,"CD, NR 400 mg/kg/day",no effect
same,HDL-cholesterol levels,HFD,unaffected
same,HFD-induced increase in LDL cholesterol,HFD,partially prevented the increase
same,cristae of mitochondria in BAT (electron microscopy),HFD,more abundant cristae
same,size of mitochondria in BAT (electron microscopy),HFD,not being significantly larger
same,glucose tolerance (intraperitoneal glucose tolerance test),"HFD, 10 weeks","slight, albeit not significant, improvement in glucose tolerance"
same,insulin secretion during glucose tolerance test,"HFD, 10 weeks",robust reduction in insulin secretion
same,endurance performance on HFD (treadmill),"HFD, 12 weeks",significantly accentuated
same,HFD-induced increase in total cholesterol,"HFD, 16 weeks, 6 hr fast",partially prevented the increase
same,O2 consumption rates on HFD,"HFD, NR 400 mg/kg/day",clearly significant
same,fat mass (Echo-MRI),"HFD, NR 400 mg/kg/day, 8 weeks",reduced fat mass
same,HFD-induced body weight gain,"HFD, NR 400 mg/kg/day, 12 weeks",significantly attenuated
same,activity pattern,NR 400 mg/kg/day,did not affect the activity pattern
same,"liver triglycerides, less than vehicle-fed",NR 400 mg/kg/day,40%
same,weight of the epididymal depot,NR 400 mg/kg/day,significant lower weight of the epididymal depot
same,food intake,"NR 400 mg/kg/day, especially on HFD",tendency to eat more
same,endurance performance,NR-fed vs vehicle fed,clear tendency to display a better endurance performance
same,SDH staining of gastrocnemius muscle,"mouse, in vivo",more intense SDH staining
